Assays:
CIC-1 ion channel = biological target: T1, CIC-1 ion channel (Rattus norvegicus, UniProt P35524); assay: Electrophysiological measurement of compound inhibition of CIC-1 in rat muscle (Gm in soleus fibres, three micro-electrodes); assay type: cell-based; conditions: Gm in individual fibres of whole rat soleus muscles, approx. 30° C., four increasing compound concentrations; read-out: Potency Range (EC50, inhibition of CIC-1 ion channel)
T1 construct: from tissue; host or cells: whole soleus muscle of 12-14 week old Wistar rats
T1 sequence (P35524 1-994): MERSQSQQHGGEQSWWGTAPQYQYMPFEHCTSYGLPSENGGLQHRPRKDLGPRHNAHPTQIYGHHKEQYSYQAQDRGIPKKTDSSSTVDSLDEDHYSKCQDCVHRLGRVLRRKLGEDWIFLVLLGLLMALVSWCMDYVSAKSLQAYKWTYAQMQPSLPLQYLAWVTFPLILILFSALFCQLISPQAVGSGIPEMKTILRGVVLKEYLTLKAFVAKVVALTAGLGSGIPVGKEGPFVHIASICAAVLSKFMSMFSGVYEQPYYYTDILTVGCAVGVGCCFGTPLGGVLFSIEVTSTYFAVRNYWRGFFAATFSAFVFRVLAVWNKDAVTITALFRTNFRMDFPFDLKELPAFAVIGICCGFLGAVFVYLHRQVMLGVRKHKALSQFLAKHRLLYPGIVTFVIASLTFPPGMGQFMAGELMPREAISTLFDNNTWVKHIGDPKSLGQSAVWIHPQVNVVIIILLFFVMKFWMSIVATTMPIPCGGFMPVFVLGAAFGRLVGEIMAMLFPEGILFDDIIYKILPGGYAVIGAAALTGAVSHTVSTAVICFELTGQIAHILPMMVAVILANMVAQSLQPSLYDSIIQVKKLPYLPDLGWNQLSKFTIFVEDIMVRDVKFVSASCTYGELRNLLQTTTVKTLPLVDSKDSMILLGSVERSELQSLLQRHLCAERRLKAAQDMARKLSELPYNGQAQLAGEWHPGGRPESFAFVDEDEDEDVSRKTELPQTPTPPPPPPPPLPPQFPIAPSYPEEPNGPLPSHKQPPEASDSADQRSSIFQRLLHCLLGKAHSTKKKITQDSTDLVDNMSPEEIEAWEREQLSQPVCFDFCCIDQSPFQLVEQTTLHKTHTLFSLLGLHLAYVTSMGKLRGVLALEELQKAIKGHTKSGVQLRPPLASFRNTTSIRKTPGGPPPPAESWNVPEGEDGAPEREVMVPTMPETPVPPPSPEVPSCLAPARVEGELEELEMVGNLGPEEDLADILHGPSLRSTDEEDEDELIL
Method: Apparent CIC-1 affinity was reported by the concentration of compound at which 50% of the compound's full inhibition of CIC-1 was observed (EC50) (see also WO2019/115777).
Experimentally, Gm was measured in individual fibres of whole rat soleus muscles using a three micro-electrodes technique described in this example and in full detail elsewhere (Riisager et al., Determination of cable parameters in skeletal muscle fibres during repetitive firing of action potentials. Journal of Physiology, 2014, 592, 4417-4429). Briefly, intact rat soleus muscles were dissected out from 12-14 week old Wistar rats and placed in an experimental chamber that was perfused with a standard Krebs Ringer solution containing 122 mM NaCl, 25 mM NaHCO3, 2.8 mM KCl, 1.2 mM KH2PO4, 1.2 mM MgSO4, 1.3 mM CaCl2, 5.0 mM D-glucose. During experiments, the solution was kept at approx. 30° C. and continuously equilibrated with a mixture of 95% O2 and 5% CO2, pH ~7.4. The experimental chamber was placed in Nikon upright microscope that was used to visualize individual muscle fibres and the three electrodes (glass pipettes filled with 2 M potassium citrate). For Gm measurements, the electrodes were inserted into the same fibre with known inter-electrode distances of 0.35-0.5 mm (V1-V2, X1) and 1.1-1.5 mm (V1-V3, X3). The membrane potential of the impaled muscle fibre was recorded by all electrodes. Two of the electrodes were furthermore used to inject 50 ms current pulses of −30 nA. […] The steady state voltage deflection at each distance was divided by the magnitude of current injected (−30 nA) and the resulting transfer resistances were plotted against inter-electrode distance and the data was fitted to a mono-exponential function from which Gm could be calculated using linear cable theory.
To establish a dose response relationship, Gm was first determined in 10 muscle fibres in the absence of compound and then at four increasing compound concentrations with Gm determinations in 5-10 fibres at each concentration. The average Gm values at each concentration were plotted against compound concentration and the data was fitted to sigmoidal function to obtain an EC5o value.

[1] = tested on: isolated rat soleus nerve-muscle preparations; assay: Measurement of force in an in vitro model: recovery of nerve-stimulated contractile force after tubocurarine; conditions: 40 min, after 40 mins of compound exposure, tubocurarine (115 nM) for 90 minutes, read-out: Point increase (%): percentage increase of initial force that was restored; for activation at 50 µM: 50 μM of test compound; for activation at 10 µM: 10 μM of test compound
Method: In one aspect, the invention relates to a method for recovery of force in muscles with neuromuscular dysfunction, said method comprising administering a compound or a composition as defined herein to a subject in need thereof. The term “recovery of force in muscles with neuromuscular dysfunction” as used herein refers to the ability of a compound to recover contractile force in nerve-stimulated healthy rat muscle after exposure to submaximal concentration (115 nM) of tubocurarine for 90 minutes.
Recovery of force is quantified as the percentage of the force prior to tubocurarine that is recovered after addition of the compound. In one embodiment, said recovery of force is >5%, such as >10%, such as >15%, such as >20%, such as >25%, such as >30%, such as >35%.
The current disclosure relates to compounds that inhibit CIC-1 ion channels and increase muscle excitability and thereby improve muscle function in clinical conditions where muscle activation is failing. Such conditions result in loss of contractile function of skeletal muscle, weakness and excessive fatigue. In this series of experiments the compounds were tested for their ability to restore contractile function of isolated rat muscle when the neuromuscular transmission had been compromised akin to neuromuscular disorders.
Experimentally, soleus muscles from 4-5 week old rats were isolated with the motor nerve remaining attached. The nerve-muscle preparations were mounted in experimental setups that enabled electrical stimulation of the motor nerve. Stimulation of the motor nerve led to activation of the muscle fibres and ensuing force production that was recorded. The nerve-muscle preparations were also in these experiments incubated in the standard Krebs Ringer (see example 15) and the solution was heated to 30° C. and continuously equilibrated with a mixture of 95% O2 and 5% CO2, pH ~7.4.
After mounting the nerve-muscle preparation in the experimental setup, the contractile function of the muscle was initially assessed under the control conditions. Sub-maximal concentration of tubocurarine (115 nM), an acetylcholine receptor antagonist, was then added to the experimental bath to impose partial inhibition of the ability of the motor nerve to activate the muscle fibres. The experimental condition mimics the failing neuromuscular transmission in a range of neuromuscular disorders. After addition of tubocurarine the contractile force declined over the next 90 minutes to 10-50% of the control force. The test compound was then added to obtain the required compound concentration in the bath and the contractile force recovered was measured. To quantify the ability of the compound to restore force the percentage of the initial force that was restored was determined after 40 mins of compound exposure and the point increase is reported in Tables 3 to 7.

SMILES	EC50 (CIC-1 ion channel) [nM]	activation at 50 µM [1] [%]	activation at 10 µM [1] [%]
Cc1cc2c(c(C(=O)O)c1C)CCCC2 [Compound A-5, 2,3-dimethyl-5,6,7,8-tetrahydronaphthalene-1-carboxylic acid]	10000 to 20000	43	–
COc1c(Cl)cc2c(c1C(=O)O)CCC2 [Compound A-6, 6-Chloro-5-methoxy-2,3-dihydro-1H-indene-4-carboxylic acid]	200 to 2000	–	42
COc1c(Cl)cc2c(c1C(=O)O)CCCC2 [Compound A-8, 3-Chloro-2-methoxy-5,6,7,8-tetrahydronaphthalene-1-carboxylic acid]	200 to 2000	–	50
Cc1c(Cl)cc2c(c1C(=O)O)CCCC2 [Compound A-9, 3-Chloro-2-methyl-5,6,7,8-tetrahydronaphthalene-1-carboxylic acid]	2000 to 10000	–	14
O=C(O)c1c2c(cc(Cl)c1OC(F)F)CCC2 [Compound A-10, 6-Chloro-5-(difluoromethoxy)-2,3-dihydro-1H-indene-4-carboxylic acid]	2000 to 10000	–	36
CCc1c(Cl)cc2c(c1C(=O)O)CCC2 [Compound A-13, 6-Chloro-5-ethyl-2,3-dihydro-1H-indene-4-carboxylic acid]	10000 to 20000	26	–
Cc1c(Cl)cc2c(c1C(=O)O)OCCC2 [Compound A-14, 6-Chloro-7-methyl-3,4-dihydro-2H-1-benzopyran-8-carboxylic acid]	10000 to 20000	39	–
COc1c(Cl)cc2c(c1C(=O)O)OCC2 [Compound A-15, 5-Chloro-6-methoxy-2,3-dihydro-1-benzofuran-7-carboxylic acid]	2000 to 10000	40	–
COc1c(Cl)cc2c(c1C(=O)O)C1CCC2C1 (stereo not drawn) [Compound A-16, 5-Chloro-4-methoxytricyclo[6.2.1.0^2,7]undeca-2(7),3,5-triene-3-carboxylic acid]	200 to 2000	–	43
O=C(O)c1cc(Cl)c(F)c2c1CCCC2 [Compound A-17, 3-Chloro-4-fluoro-5,6,7,8-tetrahydronaphthalene-1-carboxylic acid]	10000 to 20000	41	–
COc1c(F)cc2c(c1C(=O)O)CCCC2 [Compound A-18, 3-Fluoro-2-methoxy-5,6,7,8-tetrahydronaphthalene-1-carboxylic acid]	200 to 2000	–	46
COc1c(Cl)c(F)c2c(c1C(=O)O)CCCC2 [Compound A-19, 3-Chloro-4-fluoro-2-methoxy-5,6,7,8-tetrahydronaphthalene-1-carboxylic acid]	200 to 2000	41	–
Cc1cc2c(c(C(=O)O)c1Cl)C1CCC2C1 (stereo not drawn) [Compound A-20, 4-chloro-5-methyltricyclo[6.2.1.0^2,7]undeca-2,4,6-triene-3-carboxylic acid]	2000 to 10000	38	–
Cc1c(Cl)cc2c(c1C(=O)O)C1CCC2C1 (stereo not drawn) [Compound A-21, 5-chloro-4-methyltricyclo[6.2.1.0^2,7]undeca-2(7),3,5-triene-3-carboxylic acid]	10000 to 20000	42	–
COc1c(Cl)cc2c(c1C(=O)O)CCCCC2 [Compound A-22, 3-Chloro-2-methoxy-6,7,8,9-tetrahydro-5H-benzo[7]annulene-1-carboxylic acid]	200 to 2000	–	33
CSc1c(Cl)cc2c(c1C(=O)O)CCC2 [Compound A-23, 6-Chloro-5-(methylsulfanyl)-2,3-dihydro-1H-indene-4-carboxylic acid]	2000 to 10000	44	–
COc1cc2c(c(C(=O)O)c1Cl)CCCCC2 [Compound A-24, 2-Chloro-3-methoxy-6,7,8,9-tetrahydro-5H-benzo[7]annulene-1-carboxylic acid]	2000 to 10000	43	–
O=C(O)c1c2c(cc(Cl)c1OC(F)F)CCCC2 [Compound A-25, 3-Chloro-2-(difluoromethoxy)-5,6,7,8-tetrahydronaphthalene-1-carboxylic acid]	200 to 2000	–	43
